Measurements from patent publication US20230210999A1, “TARGETED PROTEASE DEGRADATION (TED) PLATFORM” (EUBULUS BIOTHERAPEUTICS INC., priority 2020, published 2023).
Like-named read-outs stand apart in the source and are kept apart here.

How the values were obtained:
Assay type in all cases: cell-based, human
[1] = tested on: PC-3; test: Cell proliferation experiment, PC-3; settings: Homo sapiens, PC-3, PC-3 cells; read-out: Inhibitory activity IC50 on PC-3
Description: (§1) Reagents: RPMI-1640 medium, McCoy's 5A medium, IMDM medium, MEM medium, L-15 medium, fetal bovine serum. Penicillin-Streptomycin double antibody, trypsin, etc., 2-mercaptoethanol, NEAA, pyruvate, etc.
(§2) The cells were cultured in conventional ways, and the cells should be passed at least 2 generations before plating. Cells at the logarithmic growth phase were collected, prepared into single cell suspensions and counted. The concentration of cells was adjusted to the desired concentration, and cells were inoculated into a 96-well cell culture plate at 100 μl per well. 100 μL of complete medium of the test compound were added to each well, set up 2 duplicate wells for each concentration, and diluted with a 5-fold gradient, and continued to culture for 72 h. All cells were subjected to IC50 test for corresponding samples. The experimental results are shown in Test Example 4.
(§3) The fluorescence intensity of each well was detected using the Alarm blue method, and IC50 was calculated.
(§4) IC50 was calculated according to the following formula:
(§5) Y=Max+(Min−Max)/[1+(X/IC50)×Slope]
(§6) wherein Min, Max and Slope represent the minimum, maximum and slope respectively.

[2] = tested on: NCIH82 cells; test: Cell proliferation experiment, NCI-H82; settings: Homo sapiens, NCI-H82, NCI-H82 cells; read-out: Inhibitory activity IC50 on NCI-H82
Method in brief: (§7)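 IC50 values derive from a four-parameter logistic fit of Alamar blue fluorescence. Cells in logarithmic growth, plated in 96-well format, are treated for 72 h with compound diluted 5-fold serially, two wells per concentration.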

[3] = tested on: MDA-MB-231 cells; test: Cell proliferation experiment, MDA-MB-231; settings: Homo sapiens, MDA-MB-231, MDA-MB-231 cells; read-out: Inhibitory activity IC50 on MDA-MB-231
Description: as §1, §2, §3, §4, §5, §6

[4] = tested on: MV4;11 cells; test: Cell proliferation experiment (Alamar blue, 72 h), MV4;11; settings: read-out: Inhibitory activity IC50 on MV4;11
Method in brief: as §7

[5] = Homo sapiens, MV4-11, MV4;11 cells

IC50 [1] [µM]	IC50 [2] [µM]	IC50 [3] [µM]	IC50 [4, 5] [µM]	IC50 ([4]; MV4;11 cells) [µM]	Compound
> 1	0.1 to 1	> 1	0.01 to 0.1	–	CNC(=O)c1ccccc1Nc1nc(Nc2ccc(N3CCN(C(=O)NCCOCCOCCCNCC(=O)Nc4ccc5c(c4)CN(C4CCC(=O)NC4=O)C5=O)CC3)cc2)ncc1Cl (stereo not drawn) [UB-181047]
> 1	> 1	> 1	0.01 to 0.1	–	N#Cc1ccccc1Nc1nc(Nc2ccc(C3CCN(C(=O)N[C@H]4CC[C@@H](NCCOCCC#Cc5cccc6c5CN(C5CCC(=O)NC5=O)C6=O)CC4)CC3)cc2)ncc1Cl (stereo partly drawn) [UB-181134]
0.01 to 0.1	> 1	> 1	0.01 to 0.1	–	CNC(=O)c1ncccc1Nc1nc(Nc2ccc(N3CCN(C(=O)N[C@H]4CC[C@H](NCCOCCC#Cc5cccc6c5CN(C5CCC(=O)NC5=O)C6=O)CC4)CC3)cc2)ncc1C#N (stereo partly drawn) [UB-181124]
> 1	> 1	> 1	0.01 to 0.1	–	CNC(=O)c1ccccc1Nc1nc(Nc2ccc(N3CCN(C(=O)NCC(O)COCCOCCOCCC(=O)Nc4cccc5c4CN(C4CCC(=O)NC4=O)C5=O)CC3)cc2)ncc1Cl (stereo not drawn) [UB-181082]
> 1	0.1 to 1	> 1	0.01 to 0.1	–	CNC(=O)c1ccccc1Nc1nc(Nc2ccc(N3CCN(C(=O)NCCOCC(=O)COCCOCCC(=O)Nc4ccc5c(c4)CN(C4CCC(=O)NC4=O)C5=O)CC3)cc2)ncc1Cl (stereo not drawn) [UB-181086]

The remaining lines, values behind:

Compound	IC50 [1] [µM]	IC50 [2] [µM]	IC50 [3] [µM]	IC50 [4, 5] [µM]	IC50 ([4]; MV4;11 cells) [µM]
CNC(=O)c1ccccc1Nc1nc(Nc2ccc(N3CCN(C(=O)N[C@H]4C[C@H](NCCCOCCC#Cc5ccc6c(c5)CN(C5CCC(=O)NC5=O)C6=O)C4)CC3)cc2)ncc1Cl (stereo partly drawn) [UB-181097]	> 1	> 1	> 1	0.1 to 1	–
CNC(=O)c1ccccc1Nc1nc(Nc2ccc(N3CCN(C(=O)NCCCCOCCCCNC#Cc4cccc5c4CN(C4CCC(=O)NC4=O)C5=O)CC3)cc2)ncc1Cl (stereo not drawn) [UB-181098]	0.1 to 1	0.01 to 0.1	> 1	< 0.01	–
CNC(=O)c1ccccc1Nc1nc(Nc2ccc(N3CCN(C(=O)NCCCNCCOCC(=O)Nc4ccc5c(c4)CN(C4CCC(=O)NC4=O)C5=O)CC3)cc2)ncc1Cl (stereo not drawn) [UB-181062]	> 1	0.1 to 1	> 1	0.01 to 0.1	–
O=C1CCC(N2Cc3cc(NC(=O)CCNCCCOCCCCNC(=O)[C@]4(Cc5cccc(Nc6nccs6)n5)CC[C@@H](Oc5cccc(Cl)c5F)CC4)ccc3C2=O)C(=O)N1 (stereo partly drawn) [UB-181034]	> 1	> 1	> 1	0.1 to 1	–
CS(=O)(=O)c1ccccc1Nc1nc(Nc2ccc(C3CCN(C(=O)N[C@H]4CC[C@H](NCCOCCC#Cc5cccc6c5CN(C5CCC(=O)NC5=O)C6=O)CC4)CC3)cc2)ncc1Cl (stereo partly drawn) [UB-181139]	0.1 to 1	0.1 to 1	0.1 to 1	< 0.01	–
NC(COCCOCCNC(=O)[C@]1(Cc2cccc(Nc3nccs3)n2)CC[C@@H](Oc2cccc(Cl)c2F)CC1)COCCC(=O)Nc1ccc2c(c1)CN(C1CCC(=O)NC1=O)C2=O (stereo partly drawn) [UB-181064]	> 1	> 1	> 1	> 1	–
O=C1CCC(N2Cc3cc(NC(=O)CCOCCOCC(O)COCCn4cc(-c5ccc(Nc6ncc7c(n6)-c6ccc(Cl)cc6C(c6c(F)cccc6F)=NC7)cc5)nn4)ccc3C2=O)C(=O)N1 (stereo not drawn) [UB-181077]	> 1	> 1	> 1	–	0.1 to 1
CNC(=O)c1ccccc1Nc1nc(Nc2ccc(N3CCN(C(=O)NCCOCCOCCNCCC(=O)Nc4cccc5c4CN(C4CCC(=O)NC4=O)C5=O)CC3)cc2)ncc1Cl (stereo not drawn) [UB-181043]	> 1	0.1 to 1	> 1	< 0.01	–
CNC(=O)c1ccccc1Nc1nc(Nc2ccc(N3CCN(C(=O)NCCNCCCC(=O)Nc4ccc5c(c4)CN(C4CCC(=O)NC4=O)C5=O)CC3)cc2)ncc1Cl (stereo not drawn) [UB-181056]	> 1	0.1 to 1	> 1	0.01 to 0.1	–
CNC(=O)c1ccccc1Nc1nc(Nc2ccc(N3CCN(C(=O)NCCCCOCCCNCCC(=O)Nc4ccc5c(c4)CN(C4CCC(=O)NC4=O)C5=O)CC3)cc2)ncc1Cl (stereo not drawn) [UB-181042]	> 1	0.1 to 1	> 1	0.01 to 0.1	–
